For test [1], the target named is T1, MARK4A (Homo sapiens, UniProt Q96L34).
T1 construct: purchased in-house DSF panel (SGC-style construct names; the trailing A/B is a construct suffix)
In words: DSF assay. In kind it is binding. To be noted: 20 µM compound. (DSF heats the sample and reads unfolding from a dye or from intrinsic fluorescence.)

Test [2] addresses T2, PAK1A (Homo sapiens, UniProt Q13153).
T2 construct: purchased in-house DSF panel (SGC-style construct names; the trailing A/B is a construct suffix)
The test is described as follows: DSF assay. In kind it is binding. To be noted: 20 µM compound.

In test [3] the target is T3, EPHA7A (Homo sapiens, UniProt Q15375).
T3 construct: purchased in-house DSF panel (SGC-style construct names; the trailing A/B is a construct suffix)
The test is described as follows: DSF assay. In kind it is binding. Particulars: 20 µM compound.

For test [4], the target named is T4, TOPKA (Homo sapiens, UniProt Q96KB5).
T4 construct: purchased in-house DSF panel (SGC-style construct names; the trailing A/B is a construct suffix)
T4 sequence (Q96KB5 32-322): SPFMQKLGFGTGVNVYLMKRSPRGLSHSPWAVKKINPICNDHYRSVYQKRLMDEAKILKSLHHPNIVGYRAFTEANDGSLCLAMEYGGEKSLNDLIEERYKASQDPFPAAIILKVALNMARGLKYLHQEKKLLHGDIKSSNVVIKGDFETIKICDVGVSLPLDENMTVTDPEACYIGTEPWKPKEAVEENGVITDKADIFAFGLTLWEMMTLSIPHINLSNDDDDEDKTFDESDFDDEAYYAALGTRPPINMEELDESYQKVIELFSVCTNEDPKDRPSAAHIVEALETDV
The test is described as follows: DSF assay. It is filed as binding. Particulars: 20 µM compound.

Test [5] concerns the target T5, STK6A (Homo sapiens, UniProt O14965).
T5 construct: purchased in-house DSF panel (SGC-style construct names; the trailing A/B is a construct suffix)
T5 sequence (O14965 122-403): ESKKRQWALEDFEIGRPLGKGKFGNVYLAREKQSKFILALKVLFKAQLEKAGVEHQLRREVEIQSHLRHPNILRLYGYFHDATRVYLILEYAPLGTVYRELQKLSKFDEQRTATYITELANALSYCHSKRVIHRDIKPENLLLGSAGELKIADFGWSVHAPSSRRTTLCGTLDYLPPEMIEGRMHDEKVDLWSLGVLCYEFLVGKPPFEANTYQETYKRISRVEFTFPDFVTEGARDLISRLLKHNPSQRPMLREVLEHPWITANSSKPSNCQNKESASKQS
In words: DSF assay. In kind it is binding. To be noted: 20 µM compound.

The target of test [6] is T6, CDKL1A (Homo sapiens, UniProt Q00532).
T6 construct: purchased in-house DSF panel (SGC-style construct names; the trailing A/B is a construct suffix)
The test is described as follows: DSF assay. In kind it is binding. To be noted: 20 µM compound.

Test [7] addresses T7, kinase protein levels in MCF-7 cells (Homo sapiens, UniProt A0A0B4J2F0).
T7 construct: endogenous in cells; host or cells: MCF-7
T7 sequence (A0A0B4J2F0 1-54): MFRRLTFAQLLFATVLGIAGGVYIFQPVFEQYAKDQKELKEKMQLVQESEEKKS
The test is described as follows: TMT-labeled quantitative proteomics. To be noted: protein PIGBOS1, MCF7, 1 µM. In kind it is cell-based.

8 compounds from article PMC11851430, “Workflow for E3 Ligase Ligand Validation for PROTAC Development” (ACS Chemical Biology, 2025) can be followed below.

The structures appear in SMILES notation.

One may read the ΔTm as the change in melting temperature against a reference sample.

T1 sequence (Q96L34 59-310): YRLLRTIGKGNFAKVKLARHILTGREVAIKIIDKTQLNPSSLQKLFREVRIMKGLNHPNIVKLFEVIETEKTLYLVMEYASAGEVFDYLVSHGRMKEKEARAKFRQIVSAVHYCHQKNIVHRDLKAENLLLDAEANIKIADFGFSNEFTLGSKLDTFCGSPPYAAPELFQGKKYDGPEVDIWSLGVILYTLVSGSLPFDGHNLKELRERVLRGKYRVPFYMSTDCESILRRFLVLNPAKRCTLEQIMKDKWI
T6 sequence (Q00532 1-303): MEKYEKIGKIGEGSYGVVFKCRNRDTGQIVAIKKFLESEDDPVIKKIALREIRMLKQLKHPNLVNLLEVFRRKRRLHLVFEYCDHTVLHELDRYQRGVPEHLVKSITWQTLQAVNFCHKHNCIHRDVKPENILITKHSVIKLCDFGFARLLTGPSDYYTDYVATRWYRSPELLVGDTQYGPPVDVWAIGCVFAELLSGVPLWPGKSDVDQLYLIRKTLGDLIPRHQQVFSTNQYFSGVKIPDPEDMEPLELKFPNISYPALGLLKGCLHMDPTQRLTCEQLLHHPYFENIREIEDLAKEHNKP
T2 sequence (Q13153 249-545): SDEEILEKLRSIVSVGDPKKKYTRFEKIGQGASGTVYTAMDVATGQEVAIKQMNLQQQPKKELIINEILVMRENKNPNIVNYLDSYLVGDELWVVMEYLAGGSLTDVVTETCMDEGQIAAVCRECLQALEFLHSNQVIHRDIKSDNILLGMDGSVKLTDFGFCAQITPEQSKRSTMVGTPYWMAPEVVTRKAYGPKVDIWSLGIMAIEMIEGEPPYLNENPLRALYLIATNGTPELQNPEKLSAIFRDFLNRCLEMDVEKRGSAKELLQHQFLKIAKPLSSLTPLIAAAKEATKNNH
T3 sequence (Q15375 590-899): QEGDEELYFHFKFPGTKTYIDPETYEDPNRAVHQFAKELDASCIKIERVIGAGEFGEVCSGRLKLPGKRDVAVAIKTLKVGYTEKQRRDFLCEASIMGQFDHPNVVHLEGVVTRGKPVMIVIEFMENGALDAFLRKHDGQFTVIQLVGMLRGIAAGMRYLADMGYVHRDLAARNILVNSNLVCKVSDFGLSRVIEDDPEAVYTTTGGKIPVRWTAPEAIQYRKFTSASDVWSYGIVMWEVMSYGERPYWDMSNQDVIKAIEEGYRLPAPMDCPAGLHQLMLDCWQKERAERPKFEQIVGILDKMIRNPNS

With `CC(C)(C)OC(=O)NCCCOCCOCCOCCCNC(=O)c1cc(Nc2cc(C3CC3)[nH]n2)nc(Nc2ccc(CC#N)cc2)n1` [5-L], the ΔTm at 20 µM is 3.21 °C in test [1]; -0.24 °C in test [2]; 2.65 °C in test [3]; 1.75 °C in test [4]; 12.2 °C in test [5]; 6.41 °C in test [6].

With `CC(=O)N[C@H](C(=O)N1C[C@H](O)C[C@H]1C(=O)NCc1ccc(-c2scnc2C)cc1OCCOCCOCCOCCOCCC(=O)N1CCN(c2ccc(Nc3ncc(Cl)c(Nc4ccccc4C(N)=O)n3)cc2)CC1)C(C)(C)C` [6-e], in test [7] (set2), the “P.Value (compound/DMSO)” value was 0.4063 and the “log2FC (compound/DMSO)” value is recorded as 0.08613.

On to `Cc1ncsc1-c1ccc(CNC(=O)[C@@H]2C[C@@H](O)CN2C(=O)[C@@H](NC(=O)CCOCCOCCNC(=O)c2cc(Nc3cc(C4CC4)[nH]n3)nc(Nc3ccc(CC#N)cc3)n2)C(C)(C)C)cc1` [5-a], for which, in test [7] (set1.1), the “P.Value (compound/DMSO)” value amounted to 0.533 and the “log2FC (compound/DMSO)” value is listed as 0.05527.

For the compound `Cc1ncsc1-c1ccc(CNC(=O)[C@@H]2C[C@@H](O)CN2C(=O)[C@@H](NC(=O)CCOCCOCCOCCN2CCN(c3cc(Nc4cc(C5CC5)[nH]n4)nc(Nc4ccc(CC#N)cc4)n3)CC2)C(C)(C)C)cc1` [4-a], in test [7] (set1.1), the “P.Value (compound/DMSO)” value came to 0.3761 and the “log2FC (compound/DMSO)” value is listed as 0.1046.

Turning to `Cc1ncsc1-c1ccc(CNC(=O)[C@@H]2C[C@@H](O)CN2C(=O)[C@@H](NC(=O)CCOCCOCCOCCOCCN2CCN(c3ccc(Nc4ncc(Cl)c(Nc5ccccc5C(N)=O)n4)cc3)CC2)C(C)(C)C)cc1` [6-b], in test [7] (set1.1), the “P.Value (compound/DMSO)” value worked out at 0.6062 and the “log2FC (compound/DMSO)” value is reported as -0.04609.

Regarding `CC(=O)N[C@H](C(=O)N1C[C@H](O)C[C@H]1C(=O)NCc1ccc(-c2scnc2C)cc1OCCOCCOCCOCCNC(=O)c1cc(Nc2cc(C3CC3)[nH]n2)nc(Nc2ccc(CC#N)cc2)n1)C(C)(C)C` [5-b], in test [7] (set2), the “P.Value (compound/DMSO)” value is reported as 0.8938 and the “log2FC (compound/DMSO)” value came out at 0.0131.

On to `CCOC(=O)c1cc(Nc2cc(C3CC3)[nH]n2)nc(Nc2ccc(CC#N)cc2)n1` [compound 5], for which the thermal shift (ΔTm) at 20 µM in test [1] came to 6.15 °C; in test [2], 1.05 °C; in test [3], 3.39 °C; in test [4] it was 2.93 °C; in test [5], 14.4 °C; in test [6], 6.89 °C.

In the case of `CC(C)(C)OC(=O)NCCOCCOCCOCCOCCC(=O)N1CCN(c2cc(Nc3cc(C4CC4)[nH]n3)nc(Nc3ccc(CC#N)cc3)n2)CC1` [4-L], the ΔTm at 20 µM in test [1] was found to be 6.16 °C; in test [2], 0.92 °C; in test [3] it was 1.51 °C; in test [4], 0.95 °C; in test [5], 18.7 °C; in test [6], 6.63 °C.
